Test results taken from PMC6128612, “Prodrugs for colon-restricted delivery: Design, synthesis, and in vivo evaluation of colony stimulating factor 1 receptor (CSF1R) inhibitors” (PLoS ONE, 2018).
Like-named read-outs stand apart in the source and are kept apart here.

What was measured:
[1] = Oral administration of prodrugs to mice: colon, plasma, feces exposure; format: in vivo; conditions: mouse; for Prodrug levels in plasma after oral dosing / Prodrug plasma concentration, fold lower than active parent 1: dose equal to 30 mg/kg of 1; for Plasma versus colon levels of active parent 1 after oral prodrug: dose equal to 30 mg/kg of 1, 3 and 11 h
Protocol: (§1) Active Parent–Male CD1 mice (N = 3) received a single oral administration of compound 1 at 30 mg/kg prepared as a nanosuspension in 2% HPC-SL, 0.2% SDS in water and dosed at 10 ml/kg. Active Parent Prodrugs–Male CD1 mice or female C57BL/6 mice (N = 3) received a single oral adminstration of prodrug at 30 mg/kg active parent equivalent in either 10% Cremophor EL + 90% 1% Na-carboxymethylcellulose (NaCMC) at 10 ml/kg or as a nanosuspension in 2% HPC-SL, 0.2% SDS in water at 10 ml/kg.Blood samples were taken over 11 hours, and colon samples were taken at 3, 6 and/or 11 hours post dose. Mice received either Teklad Global Diet 2014 (Envigo Teklad, Madison, WI or LabDiet #5010 (LabDiet, St. Louis, MO).
(§2) Due to the inherent risk of fecal or PR-dosed material contaminating true levels of colon tissue exposure, careful flushing of colon tissue for drug analysis was required. Upon necropsy, a section of mouse colon was removed, and flushed with PBS until no visible fecal material was observed. Subsequently, a 1–2 cm section of colon was blotted dry, weighed and snap-frozen in liquid nitrogen.
(§3) Colon tissue (~50 mg) was diluted 10x in Veterinary Sterile Water for Irrigation (USP by Abbott), then 1.4 mm zirconium oxide beads were added and tissue was homogenized using an Omni Bead Ruptor 24 (Omni International, Kennesaw, GA). Aliquots of colon homogenate samples and a set of colon standards were pipetted in 96-well plates and subjected to protein precipitation extraction (with acetonitrile + internal standard) on a Microlab Star robot (Hamilton Robotics, Reno, NV). Plates were then mixed on a MixMate (Eppendorf, Hamburg, Germany) for 1 min at 1600 rpm and centrifuging for 5 min at 4000 rpm in 5810 R Centrifuge (Eppendorf, Hamburg, Germany). Supernatant was transferred into new plates and diluted with LC-MS/MS mobile phase.
(§4) Spiked standards were prepared in the appropriate matrices. All unknown samples and spiked standards were combined with acetonitrile containing internal standard, vortexed, and centrifuged to pellet the proteins. Supernatants were used for subsequent analysis by LC-MS/MS. The mobile phase consisted of acetonitrile with 0.1% formic acid, and water with 0.1% formic acid at a flow rate of 0.8 mL/min. Analytes were separated using reverse phase chromatography with a fast gradient on a 30 x 2.1 mm Fortis C18 Pace […] column, prior to analysis on a Sciex API5500™ mass spectrometer. Peak areas were determined using Sciex Analyst™ 1.6 software. Actual concentrations were calculated by regression analysis of the peak area ratio (parent / internal standard) of the spiked standards versus concentration.

[2] = molecular target: CSF1R (Homo sapiens, UniProt P07333); assay: CSF1R enzyme activity (TR-FRET binding displacement, kinase panel)
CSF1R, sequence (P07333 20-972): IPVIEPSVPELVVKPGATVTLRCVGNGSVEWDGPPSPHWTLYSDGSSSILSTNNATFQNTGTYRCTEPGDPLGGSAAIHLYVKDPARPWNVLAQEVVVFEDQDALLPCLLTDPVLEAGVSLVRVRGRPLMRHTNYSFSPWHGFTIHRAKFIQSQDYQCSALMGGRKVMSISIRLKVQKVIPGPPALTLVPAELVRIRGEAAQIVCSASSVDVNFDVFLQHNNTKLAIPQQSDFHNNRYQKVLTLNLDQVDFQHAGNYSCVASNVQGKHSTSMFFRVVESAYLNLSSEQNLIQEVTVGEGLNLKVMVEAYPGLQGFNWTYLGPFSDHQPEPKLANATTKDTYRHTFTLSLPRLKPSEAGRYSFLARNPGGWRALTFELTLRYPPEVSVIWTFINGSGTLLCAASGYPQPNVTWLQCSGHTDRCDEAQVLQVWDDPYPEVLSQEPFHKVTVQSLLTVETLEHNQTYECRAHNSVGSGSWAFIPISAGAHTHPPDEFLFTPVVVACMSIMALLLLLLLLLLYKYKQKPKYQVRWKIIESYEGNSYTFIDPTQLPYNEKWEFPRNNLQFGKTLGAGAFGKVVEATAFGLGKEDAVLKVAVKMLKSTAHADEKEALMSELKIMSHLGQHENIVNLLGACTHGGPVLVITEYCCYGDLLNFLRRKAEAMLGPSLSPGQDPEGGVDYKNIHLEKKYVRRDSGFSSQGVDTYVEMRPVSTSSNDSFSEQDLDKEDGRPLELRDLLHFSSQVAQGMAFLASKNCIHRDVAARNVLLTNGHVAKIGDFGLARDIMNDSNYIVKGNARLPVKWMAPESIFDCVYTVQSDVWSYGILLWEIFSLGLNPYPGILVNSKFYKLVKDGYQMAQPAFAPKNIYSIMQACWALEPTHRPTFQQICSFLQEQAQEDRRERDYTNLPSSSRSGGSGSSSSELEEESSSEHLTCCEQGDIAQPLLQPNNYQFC
Protocol: TR-FRET-based binding displacement studies using active site probes were used to assess kinome selectivity of inhibitor molecules.[54] The concentrations of components for each purified kinase were based on optimized conditions with ranges as follows: kinases (1.25–12.5 nM), Oregon Green-labeled fluorescent probes (2x KD of probe to the particular kinase; range of 1–200 nM; in-house), terbium anti-His or anti-GST antibody (0.5–2 nM). The reaction buffer was diluted to 1x using ddH2O and contained 1 mM DTT.
Compounds were typically tested from 0.0001 to 10 μM in 10x dilutions. Reactions were carried out in a 20 μL volume in 384-well plates by combining kinase, probe, antibody, and test compound and allowing the reaction to come to equilibrium (incubation of 2 h). TR-FRET was then measured on a PerkinElmer Envision plate reader (excitation at 340 nm; emission at 520 and 495 nm). Competition by the test compound versus the fluorescent probe for the ATP binding site of the kinase was quantified by calculating the IC50 value based on a four-parameter logistic curve fit.

[3] = test system: Mouse bone marrow derived macrophages (BMDM); assay: Mouse macrophage differentiation assay (CSF-induced); format: cell-based
Protocol: Mouse bone marrow derived macrophages (BMDM) were isolated as previously described[53] from C57BL/6 female mice. The isolated cells were washed using standard growth medium (RPMI (Gibco cat# 11875–093) with 2 mM L-glutamine (Gibco cat# 25033), 1% Pen/Strep (Gibco cat# 15140), 10% heat inactivated fetal bovine serum (HI-FBS, Gibco cat# 10438), and 0.1% beta-mercaptoethanol (BME, Gibco cat# 21985–023)), and filtered through a […] cell strainer (Falcon cat# 352360). Cells were counted, re-suspended in growth medium, and plated at 1x10^5 viable cells per well in a 96 well plate (Corning cat# 3603). Inhibitors were added at various concentrations to the cells, and incubated at 37°C/5% CO2 for 30 minutes. Recombinant mouse macrophage colony stimulating factor (M-CSF, R&D cat# 416-ML-010) was added to the plates at a final concentration of […]. Plates were transferred to a 37°C/5% CO2 incubator for 5 days. On the fifth day, supernatant was removed from each well and Cell Titer Glo (Promega cat#G7571) was added. Plates were covered from the light and incubated at room temperature for 10 minutes before reading the luminescence on an EnVision plate reader (PerkinElmer).

[4] = PAMPA permeability; format: in vitro ADME
[5] = Pharmacokinetic studies of active parent in mice; format: in vivo; conditions: mouse; for clearance: male, CD1, blood, read-out: Blood Clearance (total clearance) (converted); for clearance / Blood Clearance (unbound clearance, CLb/fub): 1 mg/kg IV, N = 2–3; for FaFg: 1 mg/kg, F/Fh (compound 6) or AUCoral/AUCip
Protocol: Male CD1 mice on Teklad Global Diet 2014 (Envigo Teklad, Madison, WI) (n = 2–3 per study) received a single IV, oral or intraperitoneal (IP) administration of compounds 1, 4, 5 or 6 at 1 mg/kg in 2:5:20:73 (v/v) DMSO:Tween 80:PEG-400:D5W dosed at 10 ml/kg. Serial blood samples were taken over 24h and frozen at −20°C until analysis. Pharmacokinetic parameters after IP or PO dosing were calculated by noncompartmental methods, while pharmacokinetic parameters after IV dosing were calculated by compartmental methods using WinNonlin (version 5.2, Certara USA Inc., St. Louis, MO). Mean parameters were determined from 1–3 separate studies. FaFg was determined as F/Fh (compound 6) or as the ratio of AUC after an oral dose to that after an IP dose (AUCoral/AUCip).

[6] = Plasma stability in vitro; format: in vitro ADME, mouse
[7] = PK experiment dosing hemi-succinate 15 IV or PO; format: in vivo, mouse; conditions: IV or PO 1 mg/kg; 0.5 to 12 h
[8] = Per rectal versus oral dosing of active parent: colon, liver, plasma exposure; format: in vivo; conditions: mouse
Protocol: Prior to dosing, mice were anaesthetized with Isoflurane and fecal material was removed from colons by irrigating with 0.5 mL of PBS using a syringe fitted with a 22 gauge flexible gavage needle. After a 20 min wake up period, mice were again anesthetized and drug was administered in a volume of 0.1–0.2 mL using a syringe fitted with a 22 gauge flexible gavage needle. Mice were then placed in the anesthesia chamber for 40 min in a supine position with hind end elevated to ensure drug remained in colon. After 40 min, mice were removed from the chamber and blood sampling over time (via tail nick) began.
as §1, §2, §3, §4

[9] = CSF-induced mouse macrophage differentiation, mean from n ≥3 experiments, read-out: Mouse Mac EC50
[10] = Mus musculus, adjusted for binding in 10% FBS, read-out: Cellular EC50 corrected for binding in 10% FBS

| Structure (SMILES) | Prodrug levels in plasma after oral dosing [1] | IC50 [2] [nM] | EC50 [3, 9] [nM] | EC50 [3, 10] [µg/mL] | Papp [4] [×10⁻⁶ cm/s] | clearance [5] [mL/min/kg] | Blood Clearance (unbound clearance, CLb/fub) [5] [L/h/kg] | FaFg [5] [%] | other results |
| --- | --- | --- | --- | --- | --- | --- | --- | --- | --- |
| O=C(O)C1OC(OC2CCC(n3cc(Nc4nc(C5CCCCC5)cn5ncnc45)cn3)CC2)C(O)C(O)C1O [Compound 11, (2S,3S,4S,5R,6R)-6-(((1r,4r)-4-(4-((6-Cyclohexyl-[1,2,4]triazolo[1,5-a]pyrazin-8-yl)amino)-1H-pyrazol-1-yl)cyclohexyl)oxy)-3,4,5-trihydroxytetrahydro-2H-pyran-2-carboxylic acid] | no measureable plasma levels | – | – | – | – | – | – | – | – |
| CC(C)(O)CCn1cc(Nc2nc(C3CCCCC3)cn3ncnc23)cn1 [Compound 5, 4-(4-((6-Cyclohexyl-[1,2,4]triazolo[1,5-a]pyrazin-8-yl)amino)-1H-pyrazol-1-yl)-2-methylbutan-2-ol] | – | < 10 | 104 | 0.021 | 8.7 | 80 | 197 | 32 | – |
| CC(C)C(N)C(=O)OC1CCC(n2cc(Nc3nc(C4CCCCC4)cn4ncnc34)cn2)CC1 [Compound 8, (R)-(1r,4r)-4-(4-((6-Cyclohexyl-[1,2,4]triazolo[1,5-a]pyrazin-8-yl)amino)-1H-pyrazol-1-yl)cyclohexyl 2-amino-3-methylbutanoate] | – | – | – | – | – | – | – | – | Prodrug plasma concentration, fold lower than active parent 1 [1]: ~ 10 x; Plasma versus colon levels of active parent 1 after oral prodrug [1]: significantly higher plasma versus colon drug levels |
| CN(C)CC(=O)OC1CCC(n2cc(Nc3nc(C4CCCCC4)cn4ncnc34)cn2)CC1 (stereo not drawn) [Compound 7, (1r,4r)-4-(4-((6-Cyclohexyl-[1,2,4]triazolo[1,5-a]pyrazin-8-yl)amino)-1H-pyrazol-1-yl)cyclohexyl 2-(dimethylamino)acetate] | no prodrug levels were measurable in plasma | – | – | – | – | – | – | – | Plasma versus colon levels of active parent 1 after oral prodrug [1]: significantly higher plasma versus colon drug levels; Stability in plasma [6]: not stable in plasma |
| OCC1OC(OC2CCC(n3cc(Nc4nc(C5CCCCC5)cn5ncnc45)cn3)CC2)C(O)C(O)C1O [Compound 10, (2S,3R,4S,5S,6R)-2-(((1r,4s)-4-(4-((6-cyclohexyl-[1,2,4]triazolo[1,5-a]pyrazin-8-yl)amino)-1H-pyrazol-1-yl)cyclohexyl)oxy)-6-(hydroxymethyl)tetrahydro-2H-pyran-3,4,5-triol] | no measureable plasma levels | – | – | – | – | – | – | – | – |
| O=C(O)CCC(=O)O[C@H]1CC[C@H](n2cc(Nc3nc(C4CCCCC4)cn4ncnc34)cn2)CC1 [Compound 15, 4-(((1r,4r)-4-(4-((6-Cyclohexyl-[1,2,4]triazolo[1,5-a]pyrazin-8-yl)amino)-1H-pyrazol-1-yl)cyclohexyl)oxy)-4-oxobutanoic acid] | – | – | – | – | – | – | – | – | CSF1R enzyme activity inhibition [2]: able to inhibit CSF1R enzyme activity; Stability in plasma [6]: not stable in mouse plasma in vitro; Plasma levels of 15 [7]: no detectable plasma levels of 15 |
| OCC1OC(OC2CCC(n3cc(Nc4nc(C5CCCCC5)cn5ncnc45)cn3)CC2)C(O)C(O)C1O [Compound 9, (2R,3R,4S,5S,6R)-2-(((1r,4r)-4-(4-((6-Cyclohexyl-[1,2,4]triazolo[1,5-a]pyrazin-8-yl)amino)-1H-pyrazol-1-yl)cyclohexyl)oxy)-6-(hydroxymethyl)tetrahydro-2H-pyran-3,4,5-triol] | – | – | – | – | – | – | – | – | Prodrug plasma concentration, fold lower than active parent 1 [1]: ~ 100 x |
| OCCn1cc(Nc2nc(C3CCCCC3)cn3ncnc23)cn1 [Compound 4, 2-(4-((6-Cyclohexyl-[1,2,4]triazolo[1,5-a]pyrazin-8-yl)amino)-1H-pyrazol-1-yl)ethanol] | – | < 10 | 245 | 0.019 | 14.1 | 108 | 102 | 18 | – |
| O=C(O)[C@H]1CC[C@H](n2cc(Nc3nc(C4CCCCC4)cn4ncnc34)cn2)CC1 [Compound 6] | – | < 10 | 196 | 0.042 | 14.6 | 16.7 | 19 | 35 | – |
| O[C@H]1CC[C@H](n2cc(Nc3nc(C4CCCCC4)cn4ncnc34)cn2)CC1 [Compound 1, (1r,4r)-4-(4-((6-Cyclohexyl-[1,2,4]triazolo[1,5-a]pyrazin-8-yl)amino)-1H-pyrazol-1-yl)cyclohexanol] | – | < 10 | 113 | 0.022 | 15.6 | 75 | 150 | 43 | Kp at 1 h ([8]; colon and plasma, other: per rectal (PR), PR 30 mg/kg, 1 h, read-out: colon:plasma ratio (unbound)): 22; Kp at 3 h ([8]; male, CD1, colon and plasma, PO 30 mg/kg, 3 h, read-out: colon:plasma ratio (unbound)): 0.5; Mean colon unbound Cmax ([8]; PO 30 mg/kg, 3 h): 9 ng/g; colon:liver ratio (unbound) ([8]; PO 30 mg/kg, 3 h): 0.34 x; Mean colon unbound Cmax ([8]; PR 30 mg/kg, 1 h): 67 ng/g; colon:liver ratio (unbound) ([8]; PR 30 mg/kg, 1 h): 7 x; Compound in the colon at the terminal time point ([8]; PR 30 mg/kg, 11 h): Lack of compound detection in the colon; 1 h colon exposure versus cellular EC50 ([8]; PR 30 mg/kg, unbound): exceeded the cellular EC50; 1 h plasma exposure exceeding cellular EC50 ([8]; PR 30 mg/kg, unbound): did not |
